Paper PMC7403315, “Cyclic peptide FXII inhibitor provides safe anticoagulation in a thrombosis model and in artificial lungs” (Nature Communications, 2020)
Like-named read-outs stand apart in the source and are kept apart here. Starred links: 1 amine or outer side, 2 acyl side, 3 side chain; linkers in the order of their positions; H or OH if unused. Positions of bridges follow the written chain, without caps; N, C: chain ends. Non-standard residues stand in square brackets, D forms with d. Residues, ends and D or L forms follow the SMILES beside them. TATA = O=C(CC[*:1])N1CN(C(=O)CC[*:2])CN(C(=O)CC[*:3])C1; Phe(4-F) = N[C@@H](Cc1ccc(F)cc1)C(=O)O; β3hR = N=C(N)NCCC[C@H](N)CC(=O)O

Target: T1, recombinant pig FXIIa (Sus scrofa, UniProt O97507)
T1 construct: of FXII into a heavy chain (HC) and a light chain (LC); made in house; host or cells: CHO cells
T1 sequence (O97507 20-616): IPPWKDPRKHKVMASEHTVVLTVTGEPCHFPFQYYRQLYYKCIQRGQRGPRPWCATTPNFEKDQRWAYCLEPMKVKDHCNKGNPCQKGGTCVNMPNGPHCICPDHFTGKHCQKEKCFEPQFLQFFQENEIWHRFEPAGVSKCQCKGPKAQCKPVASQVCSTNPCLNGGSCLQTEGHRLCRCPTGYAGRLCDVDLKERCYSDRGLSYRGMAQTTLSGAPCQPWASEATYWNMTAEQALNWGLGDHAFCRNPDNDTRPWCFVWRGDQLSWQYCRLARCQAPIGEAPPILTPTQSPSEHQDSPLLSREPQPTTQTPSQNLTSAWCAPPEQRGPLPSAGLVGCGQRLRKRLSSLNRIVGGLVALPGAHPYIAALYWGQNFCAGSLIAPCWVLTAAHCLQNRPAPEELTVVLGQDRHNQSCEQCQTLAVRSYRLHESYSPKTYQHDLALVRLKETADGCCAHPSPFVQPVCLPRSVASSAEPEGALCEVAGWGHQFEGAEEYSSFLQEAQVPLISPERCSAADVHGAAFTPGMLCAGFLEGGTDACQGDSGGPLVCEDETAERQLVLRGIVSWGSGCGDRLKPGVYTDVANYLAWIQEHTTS
Experiment: Inhibition of recombinant FXIIa (rFXIIa)
Format: biochemical
Excerpt: The protein sequences for human, rabbit and pig factor XII were taken from the following database entries: human FXII: UniProtKB - P00748; rabbit FXII: NCBI RefSeq - XP_008253687.1; pig FXII: UniProtKB - O97507. The sequences are shown in the Supplementary Methods. DNA encoding the full-length proteins were ordered from Eurofins Genomics. The codons in these sequences were optimized for mammalian expression using the codon optimization tool from Integrated DNA Technologies (IDT). In addition to the FXII gene, the ordered DNA sequences encode a C-terminal GSGS-linker, a His6-tag and a stop codon, and they are flanked by NheI (GCTAGC) and a HindIII (AAGCTT) restriction sites. The entire DNA sequences are provided in the supporting materials. The DNA sequences were cloned into the pEXPR-IBA42 vector downstream of a BM40 signal sequence for secreted expression in mammalian cells. The ligated vector was transformed into DH5 alpha electrocompetent E. coli cells. Plasmid DNA from single clones was sequenced by Sanger sequencing.
1.5 mg plasmid DNA was transfected into 500 ml CHO cells (Thermo Fisher Scientific) in cell suspension culture using polyethylenimine (PEI). Cells were incubated for seven days at 37 °C, 5% CO2 under shaking conditions. The cells were removed by centrifugation and the secreted protein was purified from the supernatant using a nickel-charged immobilized metal affinity chromatography (IMAC) column (5 ml HisTrap FF Crude, GE Healthcare). The column was equilibrated with buffer containing 15 mM imidazole, 100 mM NaCl, 20 mM Tris-HCl, pH 7.4. The pH of the cell culture supernatant was adjusted to 8.0 using NaOH. The supernatant was run through the column at a flow of 5 ml per min. The column was washed with 20 column volumes of equilibration buffer at a flow of 5 ml per min. The protein was eluted with 500 mM imidazole, 100 mM NaCl, 20 mM Tris-HCl, pH 7.4 at a flow of 5 ml per min. The buffer was subsequently exchanged to 100 mM NaCl, 20 mM Tris-HCl, pH 7.4 by three iterative steps of 10-fold dilution and 10-fold concentration using a 10,000 MWCO centrifugal concentrator. The concentration was determined by measuring absorption at 280 nm (ε = 100,000). For the activation of recombinant FXII, 10 μg protein was diluted to a total volume of 10 μl 100 mM NaCl, 20 mM Tris-HCl, pH 7.4 and further diluted with 10 μl of 2-fold concentrated assay buffer (300 mM NaCl, 20 mM MgCl2, 2 mM CaCl2, 20 mM Tris-HCl, 0.02% (v/v) Triton-X100, pH 7.4). Dextran sulfate 500 kDa (DXS500) was added to a final concentration of 0.2 μg μl^−1 and incubated for 1 hour at 37 °C. 5 μg protein was analyzed by SDS-PAGE under reducing conditions.
Protease inhibition assays
The inhibitory activity of peptides was determined by measuring the residual protease activity with a fluorogenic substrate. The assay was performed in buffer containing 10 mM Tris-Cl, pH […]
1% (v/v) DMSO in a volume of 150 µl. FXIIa activity was measured with the fluorogenic substrate Boc-Gln-Gly-Arg-AMC (Bachem) at a final concentration of 50 µM. Mouse α-FXIIa (Molecular Innovations cat # MFXIIA) and human β-FXIIa (Molecular Innovations cat # HFXIIAB) were used at final concentrations of 0.4 nM. The reaction was pipetted as follows: 50 µl of bicyclic peptide in assay buffer were added to 50 µl of FXIIa in assay buffer and incubated for 10 minutes at 25°C before 50 µl of 150 µM fluorogenic substrate in assay buffer were added to measure the residual protease activity with an Infinite M200Pro fluorescence plate reader (excitation at 368 nm, emission at 467 nm; Tecan) for a period of 30 minutes with a read every minute at 25°C. The Tecan software i-control (version 1.1) was used for data analysis. Stock solutions of 1 mM bicyclic peptide were prepared by either dissolving the unpurified cyclization reaction with water or by dissolving purified and lyophilized peptide in water. The bicyclic peptides were serially diluted two-fold using assay buffer. Sigmoidal curves were fitted to the […]

`CC(C)C[C@@H]1NC(=O)[C@H](CCC(N)=O)NC(=O)[C@H](Cc2c[nH]cn2)NC(=O)[C@@H]2CSCCC(=O)N3CN(CN(C3)C(=O)CCSC[C@H](NC(=O)[C@@H](CO)NC(=O)[C@H](N)CCCNC(=N)N)C(=O)N[C@@H](Cc3ccc(F)cc3)C(=O)N[C@@H](CCCNC(=N)N)C(=O)N[C@@H](CC(C)C)C(=O)N3CCC[C@H]3C(=O)N2)C(=O)CCSC[C@@H](C(N)=O)NC(=O)C[C@H](CCCNC(=N)N)NC1=O` [FXII900] (H-[dR][dS]C[Phe(4-F)]RLPCHQL[β3hR]C-NH2; linker 3-8-13 via TATA) was tested, and the Ki was 17.4 ± 1.4 nM, the remaining activity at 0.0005 µM (read-out: Residual activity (%), Recombinant pig FXII, peptide 0.5 nM, individual plates) was 99.6% and the remaining activity at 0.001 µM (read-out: Residual activity (%), Recombinant pig FXII, peptide 1 nM, individual plates) was 93.5%. The remaining activity at 0.002 µM (read-out: Residual activity (%), Recombinant pig FXII, peptide 2 nM, individual plates) was 91.1%, the remaining activity at 0.004 µM (read-out: Residual activity (%), Recombinant pig FXII, peptide 4 nM, individual plates) was 83.3% and the remaining activity at 0.008 µM (read-out: Residual activity (%), Recombinant pig FXII, peptide 8 nM, individual plates) was 71.6%. It also gave a remaining activity at […] (read-out: Residual activity (%), Recombinant pig FXII, peptide 16 nM, individual plates) of 55.5%, a remaining activity at […] (read-out: Residual activity (%), Recombinant pig FXII, peptide 32 nM, individual plates) of 38.2% and a remaining activity at 0.064 µM (read-out: Residual activity (%), Recombinant pig FXII, peptide 64 nM, individual plates) of 23.5%. For the same molecule, the remaining activity at 0.128 µM (read-out: Residual activity (%), Recombinant pig FXII, peptide 128 nM, individual plates) was 11.5%, the remaining activity at 0.256 µM (read-out: Residual activity (%), Recombinant pig FXII, peptide 256 nM, individual plates) was 7.16% and the remaining activity at 0.512 µM (read-out: Residual activity (%), Recombinant pig FXII, peptide 512 nM, individual plates) was 5.15%.
With `CC(C)C[C@@H]1NC(=O)[C@H](CCC(N)=O)NC(=O)[C@H](CCCNC(=N)N)NC(=O)[C@@H]2CSCCC(=O)N3CN(CN(C3)C(=O)CCSC[C@H](NC(=O)[C@@H](N)CCCNC(=N)N)C(=O)N[C@@H](Cc3ccccc3)C(=O)N[C@@H](CCCNC(=N)N)C(=O)N[C@@H](CC(C)C)C(=O)N3CCC[C@H]3C(=O)N2)C(=O)CCSC[C@@H](C(=O)N[C@@H](CCCNC(=N)N)C(N)=O)NC(=O)[C@H](CCCNC(=N)N)NC1=O` [FXII618] the remaining activity at 0.00195312 µM (Recombinant pig FXII, peptide 1.95312 nM, individual plates, read-out: Residual activity (%)) was 102%, the remaining activity at 0.00390625 µM (Recombinant pig FXII, peptide 3.90625 nM, individual plates, read-out: Residual activity (%)) was 103% and the remaining activity at 0.0078125 µM (Recombinant pig FXII, peptide 7.8125 nM, individual plates, read-out: Residual activity (%)) was 95.8%. For the same molecule, the remaining activity at 0.015625 µM (Recombinant pig FXII, peptide 15.625 nM, individual plates, read-out: Residual activity (%)) was 92.8%, the remaining activity at 0.03125 µM (Recombinant pig FXII, peptide 31.25 nM, individual plates, read-out: Residual activity (%)) was 87.6% and the remaining activity at 0.0625 µM (Recombinant pig FXII, peptide 62.5 nM, individual plates, read-out: Residual activity (%)) was 82.2%. It also gave a remaining activity at 0.125 µM (Recombinant pig FXII, peptide 125 nM, individual plates, read-out: Residual activity (%)) of 71%, a remaining activity at […] (Recombinant pig FXII, peptide 250 nM, individual plates, read-out: Residual activity (%)) of 54.9% and a remaining activity at 0.5 µM (Recombinant pig FXII, peptide 500 nM, individual plates, read-out: Residual activity (%)) of 38%. For the same molecule, the remaining activity at 1 µM (Recombinant pig FXII, peptide 1000 nM, individual plates, read-out: Residual activity (%)) was 21.5% and the remaining activity at 2 µM (Recombinant pig FXII, peptide 2000 nM, individual plates, read-out: Residual activity (%)) was 14.6%.
